Test [1] deals with T1, GPR84 (Homo sapiens, UniProt Q9NQS5).
T1 construct: expressed in transfected cells
Kind of test: GPR84 [35S]GTPγS binding assay, Tris buffer (alternative). The settings on record: 3,3′ di indolylmethane at EC80, membranes from stable cell line over expressing GPR84, read-out: Alternative GPR84 assay GTPγS IC50 (GPR84-2). It counts as biochemical. On the procedure: 1.1. Cell Based Assay: GTp-γ S Binding Assay.
The following assay can be used for determination of GPR84 activation. The [^35S]GTPγS binding assay measures the level of G protein activation following agonist occupation of a GPCR, by determining the binding of the non-hydrolysable analog [^35S]GTPγS to Gα subunits.
Alternatively, the assay is performed in a 96 well plate where the following reagents are added. First 50 μL compound is added into the assay plate, followed by addition of 20 μL 3,3′ di indolylmethane at EC80 concentration (concentration which gives 80% of the activity of GPR84). In a last step, 30 μL of a mixture consisting of membranes-GTPγS-SpA beads is added [mixture consists of 20 μg/well membranes derived from stable cell line over expressing GPR84 (membranes are pre-incubated with 0.1 μM GDP for 15 min at 4° C.), 0.1 nM [^35S]GTPγS (Perkin Elmer, NEG030) and 0.5 mg/well PVT-WGA SpA beads (Perkin Elmer, RPNQ0001)]. All components are diluted in assay buffer containing 20 mM Tris pH 7.5; 5 mM MgCl2; 250 mM NaCl; 0.05% BSA; 75 ug/mL saponin Reactions are incubated for 90 min at room temperature followed by centrifugation at 2000 rpm during 15 min. Plates are read on a Topcount reader (Perkin Elmer) immediately after centrifugation (readout time, 1 min/well).

Test [2] deals with human neutrophils. Kind of test: Human neutrophil migration assay (embelin-induced chemotaxis). In kind it is cell-based. The settings on record: Neutrophil; neutrophils from human buffy coats; embelin at EC80. On the procedure:
2.1. Human Neutrophil Migration Assay
The effect of agonists or antagonists for GPR84 can therefore be assayed in a neutrophil migration test. In the neutrophil migration assay, neutrophils, freshly isolated from buffy coats from human volunteers, are treated with a compound for 30 min Subsequently, the neutrophils are transferred to the upper wells of a Corning HTS transwell 96 permeable support system, of which the lower wells are filled with a embelin solution at EC80 (concentration which gives 80% of the activity of GPR84). After 1 h of incubation, migration of the neutrophils towards embelin in the lower compartment can be quantified by measuring the ATP-content of the lower wells using the ATPlite luminescence ATP detection assay system (Perkin Elmer, Cat. No.: 436110).
2.1.1 Isolation of Neutrophils from Human Buffy Coat
A human buffy coat is diluted with an equal volume of ice cold DPBS. 20 mL of the diluted buffy coat is gently mixed with 4 mL of ACD buffer (140 mM citric acid, 200 mM sodium citrate and 220 mM dextrose). Then, 12 mL of the 6% dextran/0.9% NaCl solution (15 g dextran T2000 and 2.25 g NaCl dissolved in 250 mL H2O) is added to the mixture and the samples are inverted gently up to 20 times. The total volume was transferred to a new recipient and incubated at room temperature for 1 h for complete separation of the two phases to occur. The yellowish supernatant is then transferred to a clean centrifugation tube and centrifuged for 12 min at 1300 rpm and 4° C. After centrifugation, the supernatant is discarded and the remaining cell pellet is rapidly resuspended in 12 mL of ice-cold H2O for red blood cell lysis to occur. After 20 seconds, 4 mL of ice-cold 0.6 M KCl is added. Samples are mixed carefully and centrifuged for 6 min at 1300 rpm, 4° C. The supernatant is discarded and the red blood cell lysis procedure is repeated one more time. Subsequently, the cell pellet is resuspended in 4 mL of DPBS and layered over 5 mL of Lymphoprep (Nycomed Pharma, Cat. No.: 1114545) in a 15 mL centrifuge tube. After centrifugation for 12 min at 1300 rpm, 4° C., the supernatant is removed and the cell pellet, containing the neutrophils, is resuspended in 25 mL chemotaxis buffer (RPMI 1640 medium, supplemented with 10 mM HEPES; freshly made for each experiment)
A cell suspension of 8.9×10^6 cells per milliliter is prepared. 20 μL of compound solution in chemotaxis buffer is added to 180 μL cell suspension. The mixture is incubated at 37° C. for 30 min with intermediate resuspension of the cells after 15 min Following this, 70 μL cell suspension is transferred to the upper compartment of a Corning HTS transwell 96 permeable support system with 5.0 μm pore size polycarbonate membrane (Corning, Cat. No.: 3387). The receiver well of the transwell system is then filled with 200 μL chemotaxis buffer containing compound and chemotactic agent (embelin). After incubation at 37° C. in 5% CO2 for 1 h, the upper plate of the transwell system is removed and the cell suspension in the receiver plate is transferred to a 96-well V-bottom plate. 50 μL of DPBS is added to the receiver plate to prevent remaining cells from drying out. The V-bottom plate is centrifuged for 6 min at 1500 rpm. The supernatant is removed and the cells are resuspended in 50 μL DPBS. The cells are then transferred back to the receiver plate of the transwell system. After this, 100 μL ATPlite solution (Perkin Elmer, Cat. No: 436110) was added to the cells. The plate is incubated for 10 min in the dark, while shaking. […] of cell lysate is then transferred to a white 96-well plate and luminescence is measured. The detected luminescent signal is considered as linearely related to the number of cells having migrated from the upper well to the receiver well.

Test [3] addresses T1, GPR84. Kind of test: GPR84 [35S]GTPγS binding assay, HEPES buffer. To be noted: 3,3′ di indolylmethane at EC80, membranes from stable cell line over expressing GPR84. It counts as biochemical. The gist of the method:
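Membranes from a stable GPR84-overexpressing cell line (20 μg/well), pre-incubated with 0.1 μM GDP for 15 min at 4° C, mixed with 0.1 nM [35S]GTPγS and WGA SpA beads in 20 mM HEPES pH 7.4, 5 mM MgCl2, 250 mM NaCl, 0.05% BSA, 75 ug/mL saponin. Incubated 90 min at room temperature; scintillation proximity read after centrifugation.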
Background: GTPγS is a poorly hydrolysed GTP analogue; its binding reports G protein activation.

T1 sequence (Q9NQS5 whole entry): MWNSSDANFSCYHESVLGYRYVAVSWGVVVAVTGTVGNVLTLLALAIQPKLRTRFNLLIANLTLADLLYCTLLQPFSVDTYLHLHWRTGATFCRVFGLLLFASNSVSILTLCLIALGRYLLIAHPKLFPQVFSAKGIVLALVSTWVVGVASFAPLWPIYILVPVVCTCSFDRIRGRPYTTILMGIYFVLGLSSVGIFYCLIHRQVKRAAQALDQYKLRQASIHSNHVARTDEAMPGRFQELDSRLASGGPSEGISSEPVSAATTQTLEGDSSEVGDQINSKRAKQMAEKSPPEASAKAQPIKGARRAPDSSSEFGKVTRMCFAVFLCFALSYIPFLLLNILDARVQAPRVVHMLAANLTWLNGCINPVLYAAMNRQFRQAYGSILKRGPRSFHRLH

A word on the IC50: it is the point on the concentration scale where inhibition reaches its midpoint. As for `Cc1cccc(COc2ccc3c(c2)CCn2c-3cc(OCC3CCCO3)nc2=O)c1` (stereo not shown) [compound 34, 9-(3-methyl-benzyloxy)-2-(tetrahydro-furan-2-ylmethoxy)-6,7-dihydro-pyrimido[6,1-a]isoquinolin-4-one], in test [1], the IC50 lay in the range of 100 to 500 nM.

Regarding `O=c1nc(OCC2CCCO2)cc2n1CCc1cc(OCc3cccc4ccccc34)ccc1-2` (stereo not shown) [compound 38, 9-(naphthalen-1-ylmethoxy)-2-(tetrahydro-furan-2-ylmethoxy)-6,7-dihydro-pyrimido[6,1-a]isoquinolin-4-one], the IC50 in test [1] is 500 to 1000 nM.

`O=C(COc1ccc2c(c1)CCn1c-2cc(OCC2COc3ccccc3O2)nc1=O)N1CCCC1` (stereo not shown) [compound 74, 2-(2,3-dihydro-benzo[1,4]dioxin-2-ylmethoxy)-9-(2-oxo-2-pyrrolidin-1-yl-ethoxy)-6,7-dihydro-pyrimido[6,1-a]isoquinolin-4-one]: the IC50 in test [2] lay in the range of 0.01 to 100 nM; in test [3], 100 to 500 nM.

Regarding `COc1ccc(-c2ccc3c(c2)CCn2c-3cc(OCC3CCCO3)nc2=O)cn1` (stereo not shown) [compound 110, 9-(6-methoxy-pyridin-3-yl)-2-(tetrahydro-furan-2-ylmethoxy)-6,7-dihydro-pyrimido[6,1-a]isoquinolin-4-one], in test [1], the IC50 is 100 to 500 nM.

As for `Cc1noc(C)c1-c1ccc2c(c1)CCn1c-2cc(OCC2CCCO2)nc1=O` (stereo not shown) [compound 112, 9-(3,5-dimethyl-isoxazol-4-yl)-2-(tetrahydro-furan-2-ylmethoxy)-6,7-dihydro-pyrimido[6,1-a]isoquinolin-4-one], the IC50 in test [1] fell in the range of 100 to 500 nM.

`O=c1nc(OCC2CCCO2)cc2n1CCc1cc(-c3ccc4ccccc4c3)ccc1-2` (stereo not shown) [compound 113, 9-naphthalen-2-yl-2-(tetrahydro-furan-2-ylmethoxy)-6,7-dihydro-pyrimido[6,1-a]isoquinolin-4-one]: the IC50 in test [1] fell in the range of 0.01 to 100 nM.

Consider `O=c1nc(OCC2CCCO2)cc2n1CCc1cc(-c3cccc4ccccc34)ccc1-2` (stereo not shown) [compound 114, 9-naphthalen-1-yl-2-(tetrahydro-furan-2-ylmethoxy)-6,7-dihydro-pyrimido[6,1-a]isoquinolin-4-one], for which, in test [1], the IC50 is 500 to 1000 nM.

Take `O=c1nc(OCC2CCCO2)cc2n1CCc1cc(-c3ccc(Cl)s3)ccc1-2` (stereo not shown) [compound 116, 9-(5-chloro-thiophen-2-yl)-2-(tetrahydro-furan-2-ylmethoxy)-6,7-dihydro-pyrimido[6,1-a]isoquinolin-4-one]: the IC50 in test [1] is 500 to 1000 nM.

Consider `O=c1nc(OCC2CCCO2)cc2n1CCc1cc(C#CC3CC3)ccc1-2` (stereo not shown) [compound 119, 9-cyclopropylethynyl-2-(tetrahydro-furan-2-ylmethoxy)-6,7-dihydro-pyrimido[6,1-a]isoquinolin-4-one], for which the half-maximal inhibitory concentration (IC50) in test [1] was in the range of 100 to 500 nM.

For `CC(C)(C)C#Cc1ccc2c(c1)CCn1c-2cc(OCC2CCCO2)nc1=O` (stereo not shown) [compound 120, 9-(3,3-dimethyl-but-1-ynyl)-2-(tetrahydro-furan-2-ylmethoxy)-6,7-dihydro-pyrimido[6,1-a]isoquinolin-4-one], in test [1], the IC50 fell in the range of 500 to 1000 nM.

Consider `O=c1nc(OCC2COc3ncccc3O2)cc2n1CCc1cc(-c3cccnc3)ccc1-2` (stereo not shown) [compound 124, 2-(2,3-Dihydro-[1,4]dioxino[2,3-b]pyridin-2-ylmethoxy)-9-pyridin-3-yl-6,7-dihydro-pyrimido[6,1-a]isoquinolin-4-one], for which, in test [1], the IC50 was in the range of 0.01 to 100 nM.

Consider `COc1ccccc1-c1ccc2c(c1)CCn1c-2cc(OCC2COc3ncccc3O2)nc1=O` (stereo not shown) [compound 126, 2-(2,3-dihydro-[1,4]dioxino[2,3-b]pyridin-2-ylmethoxy)-9-(2-methoxy-phenyl)-6,7-dihydro-pyrimido[6,1-a]isoquinolin-4-one], for which the IC50 in test [1] fell in the range of 100 to 500 nM.

`O=c1nc(OCC2COc3ncccc3O2)cc2n1CCc1cc(-c3ccc4[nH]ncc4c3)ccc1-2` (stereo not shown) [compound 127, 2-(2,3-Dihydro-[1,4]dioxino[2,3-b]pyridin-2-ylmethoxy)-9-(1H-indazol-5-yl)-6,7-dihydro-pyrimido[6,1-a]isoquinolin-4-one]: the IC50 in test [1] was in the range of 0.01 to 100 nM.

As to `O=c1nc(OCC2COc3ncccc3O2)cc2n1CCc1cc(-c3cncnc3)ccc1-2` (stereo not shown) [compound 128, 2-(2,3-dihydro-[1,4]dioxino[2,3-b]pyridin-2-ylmethoxy)-9-pyrimidin-5-yl-6,7-dihydro-pyrimido[6,1-a]isoquinolin-4-one], the half-maximal inhibitory concentration (IC50) in test [1] fell in the range of 0.01 to 100 nM.

With `NC(=O)c1cccc(-c2ccc3c(c2)CCn2c-3cc(OCC3COc4ncccc4O3)nc2=O)c1` (stereo not shown) [compound 129, 3-[2-(2,3-Dihydro-[1,4]dioxino[2,3-b]pyridin-2-ylmethoxy)-4-oxo-6,7-dihydro-4H-pyrimido[6,1-a]isoquinolin-9-yl]-benzamide], the IC50 in test [1] was in the range of 0.01 to 100 nM.

In the case of `CN(C)c1ccccc1-c1ccc2c(c1)CCn1c-2cc(OCC2COc3ncccc3O2)nc1=O` (stereo not shown) [compound 130, 2-(2,3-Dihydro-[1,4]dioxino[2,3-b]pyridin-2-ylmethoxy)-9-(2-dimethylamino-phenyl)-6,7-dihydro-pyrimido[6,1-a]isoquinolin-4-one], the IC50 in test [1] was 100 to 500 nM.

For the compound `O=c1nc(OCC2COc3ncccc3O2)cc2n1CCc1cc(C#CCCO)ccc1-2` (stereo not shown) [compound 133, 2-(2,3-dihydro-[1,4]dioxino[2,3-b]pyridin-2-ylmethoxy)-9-(4-hydroxy-but-1-ynyl)-6,7-dihydro-pyrimido[6,1-a]isoquinolin-4-one], the IC50 in test [1] was in the range of 0.01 to 100 nM.

Take `Cc1noc(COc2ccc3c(c2)CCn2c-3cc(OCC3COc4ncccc4O3)nc2=O)n1` (stereo not shown) [compound 135, 2-(2,3-dihydro-[1,4]dioxino[2,3-b]pyridin-2-ylmethoxy)-9-(3-methyl-[1,2,4]oxadiazol-5-ylmethoxy)-6,7-dihydro-pyrimido[6,1-a]isoquinolin-4-one]: the IC50 in test [1] was in the range of 0.01 to 100 nM.

Consider `O=c1nc(OCC2COc3ncccc3O2)cc2n1CCc1cc(C#CCO)ccc1-2` (stereo not shown) [compound 138, 2-(2,3-dihydro-[1,4]dioxino[2,3-b]pyridin-2-ylmethoxy)-9-(3-hydroxy-prop-1-ynyl)-6,7-dihydro-pyrimido[6,1-a]isoquinolin-4-one], for which, in test [1], the 50% inhibitory concentration (IC50) fell in the range of 0.01 to 100 nM.

In the case of `O=c1nc(OC[C@@H]2COc3ncccc3O2)cc2n1CCc1cc(OCc3ncco3)ccc1-2` [compound 190], the IC50 was in the range of 0.01 to 100 nM in test [2] and 100 to 500 nM in test [3].
